Results on ten compounds are retold here after US10189809B2, “SGC stimulators” (Ironwood Pharmaceuticals, Inc., priority 2010, dated 2019).

The structures appear in SMILES notation. Like-named read-outs stand apart in the source and are kept apart here.

The target of experiment [1] is T1, soluble guanylate cyclase (sGC) (Homo sapiens (Human), UniProt Q02108+Q02153). Nature of the experiment: sGC-HEK-cGMP assay run in the absence of SNP (HEK WC assay). It is filed as cell-based. Conditions: compound at 30 μM, absence of SNP. The essentials: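 HEK293 cells with endogenous sGC, preincubated 15 min at 37° C with 0.5 mM IBMX, then exposed to test compound 10 min at 37° C without SNP. Cells lysed in 0.1 M HCl; cGMP quantified by LC/MS against a standard curve. EC50 from concentration-response curves.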
T1 sequence (Q02153 whole entry): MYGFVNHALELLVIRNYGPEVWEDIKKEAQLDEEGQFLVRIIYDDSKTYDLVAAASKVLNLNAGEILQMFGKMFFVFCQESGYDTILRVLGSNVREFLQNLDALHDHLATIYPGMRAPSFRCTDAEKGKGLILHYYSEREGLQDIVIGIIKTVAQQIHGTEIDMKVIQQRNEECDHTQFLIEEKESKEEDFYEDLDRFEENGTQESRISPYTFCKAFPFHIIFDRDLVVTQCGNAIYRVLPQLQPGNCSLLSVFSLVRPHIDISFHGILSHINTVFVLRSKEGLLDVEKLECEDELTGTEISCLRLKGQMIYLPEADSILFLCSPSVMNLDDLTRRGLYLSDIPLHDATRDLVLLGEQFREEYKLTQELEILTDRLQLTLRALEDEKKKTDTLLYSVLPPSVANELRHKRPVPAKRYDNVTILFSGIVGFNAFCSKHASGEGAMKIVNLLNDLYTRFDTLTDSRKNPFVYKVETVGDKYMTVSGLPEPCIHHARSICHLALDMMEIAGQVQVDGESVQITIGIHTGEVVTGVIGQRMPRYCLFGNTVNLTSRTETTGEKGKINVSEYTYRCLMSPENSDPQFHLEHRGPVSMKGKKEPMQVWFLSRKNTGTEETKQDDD
T1 sequence (Q02108 whole entry): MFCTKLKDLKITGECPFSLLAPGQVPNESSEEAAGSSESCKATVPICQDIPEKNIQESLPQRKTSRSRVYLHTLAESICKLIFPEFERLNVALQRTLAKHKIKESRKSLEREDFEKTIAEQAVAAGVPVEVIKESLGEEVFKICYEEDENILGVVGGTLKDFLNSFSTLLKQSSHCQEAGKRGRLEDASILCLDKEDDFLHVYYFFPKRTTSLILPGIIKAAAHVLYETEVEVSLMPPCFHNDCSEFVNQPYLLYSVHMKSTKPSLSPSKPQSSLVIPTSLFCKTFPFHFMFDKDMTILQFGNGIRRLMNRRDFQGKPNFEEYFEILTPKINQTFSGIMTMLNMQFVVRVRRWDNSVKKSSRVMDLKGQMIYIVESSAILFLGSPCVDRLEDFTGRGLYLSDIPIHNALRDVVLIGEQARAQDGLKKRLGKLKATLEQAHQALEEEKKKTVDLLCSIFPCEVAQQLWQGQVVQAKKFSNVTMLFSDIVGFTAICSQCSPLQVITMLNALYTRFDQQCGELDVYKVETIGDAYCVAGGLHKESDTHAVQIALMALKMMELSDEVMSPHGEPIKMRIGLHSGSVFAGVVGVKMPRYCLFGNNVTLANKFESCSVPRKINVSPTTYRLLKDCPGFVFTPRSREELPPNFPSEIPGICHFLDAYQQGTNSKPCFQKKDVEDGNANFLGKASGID

Experiment [2] has as its target T1, soluble guanylate cyclase (sGC). Nature of the experiment: sGC-HEK-cGMP assay run with SNP incubation (HEK WC assay). It is filed as cell-based. As to conditions: for HEK WC Assay (fold increase at 30 μM in the presence of 10 μM SNP): compound at 30 μM; for EC50: in the presence of 10 uM SNP. The essentials: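 HEK293 cells with endogenous sGC were pretreated with 0.5 mM IBMX for 15 min at 37 °C, then exposed to test compound plus sodium nitroprusside for 10 min at 37 °C.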

[3] abbreviates: read-out: HEK WC Assay (% Emax at 1 μM with 10 uM SNP).
Setting [4] is: read-out: HEK WC Assay (% Emax at 10 μM with 10 uM SNP).
The mark [5] stands for this setting: read-out: HEK WC Assay (% Emax at 30 μM with 10 uM SNP).

Regarding `OCCc1cnc(-c2cc(-c3ccon3)n(Cc3ccccc3F)n2)nc1O` [Compound I-210], in experiment [1], the “HEK WC Assay (fold increase at 30 μM in the absence of SNP)” value is “C (C = 2 to <5 fold increase)”. The “HEK WC Assay (fold increase at 30 μM in the presence of 10 μM SNP)” value in experiment [2] is given as “D (D = 5 to <10 fold increase)”. Also, the EC50 – broadly, the concentration that produces a half-maximal response – in experiment [2] was 60 to 100 µM. Moreover, the results for the Emax in experiment [2] (setting [3]), in experiment [2] (setting [4]) and in experiment [2] (setting [5]) were 0 to 10%, 10 to 20% and 20 to 40%, respectively.
`N#Cc1cc(-c2ncccn2)nn1Cc1ccccc1F` [Compound I-293]: the “HEK WC Assay (fold increase at 30 μM in the absence of SNP)” value in experiment [1] was “C (C = 2 to <5 fold increase)”. For the same compound, in experiment [2], the “HEK WC Assay (fold increase at 30 μM in the presence of 10 μM SNP)” value was “C (C = 2 to <5 fold increase)” and the EC50 lay within 40 to 60 µM. In addition, in experiment [2] (setting [4]), the Emax – broadly, the maximal effect, on the per cent scale that the assay sets – was 20 to 40%. Moreover, in experiment [2] (setting [5]), the Emax is 20 to 40%.
On to `Oc1coc(-c2cc(-c3ncccn3)nn2Cc2ccccc2F)n1` [Compound I-295], for which, in experiment [1], the “HEK WC Assay (fold increase at 30 μM in the absence of SNP)” value is “B (B = 1 to <2 fold increase)”. For the same compound, the “HEK WC Assay (fold increase at 30 μM in the presence of 10 μM SNP)” value in experiment [2] is reported as “C (C = 2 to <5 fold increase)”. The EC50 in experiment [2] was in the range of 40 to 60 µM. Besides, the Emax lay within 0 to 10% in experiment [2] (setting [4]) and 10 to 20% in experiment [2] (setting [5]).
Regarding `Oc1nc(-c2cc(-c3ccon3)n(Cc3ccccc3F)n2)ncc1-c1ccncc1` [Compound I-163], the “HEK WC Assay (fold increase at 30 μM in the absence of SNP)” value in experiment [1] is listed as “C (C = 2 to <5 fold increase)”. Besides, in experiment [2], the “HEK WC Assay (fold increase at 30 μM in the presence of 10 μM SNP)” value is “E (E = 10 to <20 fold increase)”. For the same compound, the Emax in experiment [2] (setting [4]) and in experiment [2] (setting [5]) was 40 to 60% each time.
On to `Fc1cccc(Cn2nc(-c3ncccn3)cc2-c2ccon2)c1F` [Compound I-198], for which the “HEK WC Assay (fold increase at 30 μM in the absence of SNP)” value in experiment [1] is reported as “D (D = 5 to <10 fold increase)”. For the same compound, in experiment [2], the “HEK WC Assay (fold increase at 30 μM in the presence of 10 μM SNP)” value was “E (E = 10 to <20 fold increase)”. Also, the EC50 in experiment [2] is below 20 µM. Further, the Emax lay in the range of 40 to 60% in experiment [2] (setting [3]), 40 to 60% in experiment [2] (setting [4]) and 60 to 80% in experiment [2] (setting [5]).
In the case of `Nc1nc(-c2cc(-c3ccon3)n(Cc3ccccc3F)n2)ncc1NC(=O)C1(c2ccccc2)CCC1` [Compound I-218], the “HEK WC Assay (fold increase at 30 μM in the absence of SNP)” value in experiment [1] is on record as “D (D = 5 to <10 fold increase)”. Further, the “HEK WC Assay (fold increase at 30 μM in the presence of 10 μM SNP)” value in experiment [2] was “E (E = 10 to <20 fold increase)”. The EC50 in experiment [2] fell in the range of 20 to 40 µM. Also, the Emax in experiment [2] (setting [3]) was 40 to 60%; in experiment [2] (setting [4]), 40 to 60%; in experiment [2] (setting [5]), 20 to 40%.
With `FC(F)(F)c1ccccc1Cn1nc(-c2ncccn2)cc1-c1ccon1` [Compound I-201], the “HEK WC Assay (fold increase at 30 μM in the absence of SNP)” value in experiment [1] is reported as “B (B = 1 to <2 fold increase)”. In addition, the “HEK WC Assay (fold increase at 30 μM in the presence of 10 μM SNP)” value in experiment [2] is recorded as “B (B = 1 to <2 fold increase)”. In addition, the Emax in experiment [2] (setting [3]), in experiment [2] (setting [4]) and in experiment [2] (setting [5]) was 0 to 10% in each case.
`Fc1cccc(Cn2nc(-c3ncccn3)cc2-c2ccon2)c1` [Compound I-202]: the “HEK WC Assay (fold increase at 30 μM in the absence of SNP)” value in experiment [1] is listed as “C (C = 2 to <5 fold increase)”. In addition, the “HEK WC Assay (fold increase at 30 μM in the presence of 10 μM SNP)” value in experiment [2] is “E (E = 10 to <20 fold increase)”. In experiment [2], the EC50 is below 20 µM. Also, the Emax in experiment [2] (setting [3]) lay in the range of 20 to 40%; in experiment [2] (setting [4]), 40 to 60%; in experiment [2] (setting [5]) it was 40 to 60%.
With `Oc1ccnc(-c2cc(-c3ccon3)n(Cc3ccccc3F)n2)n1` [Compound I-160, 2-(1-(2-fluorobenzyl)-5-(isoxazol-3-yl)-1H-pyrazol-3-yl)pyrimidin-4-ol], the “HEK WC Assay (fold increase at 30 μM in the absence of SNP)” value in experiment [1] is recorded as “C (C = 2 to <5 fold increase)”. For the same compound, in experiment [2], the “HEK WC Assay (fold increase at 30 μM in the presence of 10 μM SNP)” value was “E (E = 10 to <20 fold increase)”. In experiment [2], the EC50 was below 20 µM. Further, the maximum response (Emax) in experiment [2] (setting [3]) was 10 to 20%; in experiment [2] (setting [4]) it was 40 to 60%; in experiment [2] (setting [5]) it was 40 to 60%.
Turning to `O=S(=O)(c1ccc(F)cc1)c1cnc(-c2cc(-c3ccon3)n(Cc3ccccc3F)n2)nc1O` [Compound I-241], the “HEK WC Assay (fold increase at 30 μM in the absence of SNP)” value in experiment [1] was “D (D = 5 to <10 fold increase)”. Besides, the “HEK WC Assay (fold increase at 30 μM in the presence of 10 μM SNP)” value in experiment [2] was “E (E = 10 to <20 fold increase)”. Moreover, in experiment [2], the EC50 was below 20 µM. The Emax in experiment [2] (setting [3]) was in the range of 20 to 40%; in experiment [2] (setting [4]), 60 to 80%; in experiment [2] (setting [5]), 40 to 60%.
